Experiments:
[1] = Whole blood cell model: immunosuppressant serum levels after CytoSorb treatment; type: in vitro ADME, human; details: overnight incubation, p < 0.05, n = 6
Experimental: To investigate whether the in vitro depletion of immunosuppressants by CytoSorb affects immunosuppression, a whole blood cell model was established. The experiment was conducted over two consecutive days. A graphical overview of the setup is provided in Supplementary Figure S1. On day one, freshly drawn human whole blood was incubated overnight at 37 °C with various immunosuppressants, either individually or in combination, to allow for sufficient drug exposure prior to CytoSorb treatment.
Subsequently, the blood was split into two experimental groups: one was treated with CytoSorb in a batch setup, and the other served as an untreated control, incubated under identical conditions at 37 °C on a roller mixer. Following treatment, all samples were allowed to rest for 4 h. After the resting period, blood samples were stimulated with either lipopolysaccharide (LPS) E. coli or with anti-CD3 antibodies. LPS primarily activates monocytes and neutrophils via the TLR4/CD14/MD2 complex, while anti-CD3 specifically stimulates T cells. The stimulation was carried out for 4 h at 37 °C on a roller mixer. Thereafter, the blood samples were centrifuged, and the plasma was collected and stored at −80 °C. Leukocyte activation was assessed by quantification of IL-1β, IL-6, IL-8, and TNF-α.
(§1) MPA was determined using a validated test for the Cobas c311 autoanalyzer from Roche (Basel, Switzerland). 6-MP was quantified by reversed-phase HPLC [17, 18]. After precipitation of the plasma sample with ice cold methanol in ratio 1:5, 30 µL of the supernatant was injected into a Nukleosil 100-5C18, 4.6 × 150 mm C18 column (Macherey-Nagel, Düren, Germany), combined with an Onyx Monolithic C18, 4.6 × 5 mm guard column (Phenomenex, Torrance, CA, USA). The mobile phase consisted of methanol and deionised water (50:50) which was continuously pumped with a flow rate of 0.8 mL/min for five minutes. 6-MP was quantified with a retention time of 2.3 min using an UV detector (325 nm). The quantification of cytokines was determined by Magnetic Luminex Assay with a human premixed Multi Analyte Kit (R&D Systems, Minneapolis, MN, USA). The urea, albumin and total protein levels were measured with the cobas c311 automated analyzer with corresponding test kits from Roche (Penzberg, Germany).

[2] = Dynamic CytoSorb adsorption setup (scaled-down circuit, whole blood); type: in vitro ADME, human
Experimental: To quantify the depletion of selected immunosuppressants during CytoSorb treatment under dynamic conditions, a scaled-down extracorporeal circulation system was established, consisting of a 30 mL CytoSorb adsorption cartridge and a pediatric tubing set filled with 400 mL of freshly drawn human whole blood (Figure 1b). To distinguish between drug removal by adsorption versus uptake by blood components, a control circuit with an identical setup but an empty cartridge was run in parallel for each experiment. Whole blood from two healthy donors of the same blood group was pooled, anticoagulated with citrate (final concentration: 7 mM), spiked with the immunosuppressants, and divided into two 400 mL blood bags.
Prior to circulation, the entire system was flushed with isotonic saline. Then, one of the prepared blood bags (Group 1 or Group 2) was connected to the circuit and circulated for 30 min at 37 °C without the adsorber cartridge to allow for equilibration. Following this equilibration, a baseline sample (0 min) was collected, and the adsorption column was introduced into the circuit. In the adsorption circuit, samples were collected at 15, 30, 60, 120, 180 and 240 min. In the control circuit, samples were taken at baseline and after 240 min. All blood samples were centrifuged (3500× g, 10 min) to separate plasma, which was stored at −80 °C until further analysis.
(§2) The clearance (C) of each compound during both the dialysis and the dynamic CytoSorb experiments was calculated using the first-order exponential decay formula:(2) C = V/t ×lnCo/Ct where V = plasma volume, t = treatment time [min], C0 = concentration before starting treatment, Ct = concentration at time t.
as §1

[3] = Removal of immunosuppressants by chronic dialysis (ex vivo, plasma); type: in vitro ADME, human
Experimental: (§3) To evaluate the effect of dialysis under clinically relevant conditions, both chronic and acute dialysis settings were simulated using standard Fresenius systems. In all experiments, 1.5 L of citrated human plasma was dialyzed against calcium-free dialysate at 37 °C.
(§4) Prior to circulation, the systems were flushed with 2 L of isotonic saline. Plasma samples were collected at defined time points (15–480 min) and analyzed for immunosuppressants, urea, and albumin. Chronic dialysis represents intermittent high-flow conditions, whereas acute dialysis mimics continuous low-flow therapy used in critically ill patients.
as §2

[4] = Removal of immunosuppressants by acute dialysis (CVVHD, ex vivo, plasma); type: in vitro ADME, human
Experimental: as §3, §4, §2

[5] = set-up: method as in earlier work; details: literature; ref 23 (methylprednisolone), 24 (mycophenolate), 41 (6-mercaptopurine); cited from earlier work
[6] = Determination of protein binding by ultrafiltration; type: in vitro ADME; details: human plasma, ultrafiltration 30 kDa cutoff; read-out: Protein Binding in Plasma, Current Study (converted)
Experimental: To assess protein binding of the tested immunosuppressants, human plasma was spiked with the respective drugs and urea as a freely diffusible control. Samples were then subjected to ultrafiltration (30 kDa cutoff, 15,000× g, 20 min). The protein-bound fraction was calculated using the following formula:(1) protein binding %= 1−Cfiltrate/Cplasma where cplasma is the concentration of each compound in plasma and cfiltrate is its concentration in the ultrafiltrate.

[7] = Static CytoSorb adsorption setup (spiked plasma with CytoSorb resin); type: in vitro ADME, human; details: plasma:resin 1:10 v/v, 60 min, 37 °C, n = 3
Experimental: (§5) Plasma was obtained by centrifugation (3500× g, 10 min) from citrate-anticoagulated human whole blood and spiked with immunosuppressants to defined target concentrations (Table 1). To evaluate adsorption, plasma was incubated with the CytoSorb resin at 1:10 (v/v) for 60 min at 37 °C on a roller mixer. In parallel, a separate aliquot of spiked plasma was incubated with autologous blood cells (1:1, v/v) to assess cellular uptake of immunosuppressants. Untreated spiked plasma served as control (Figure 1a). Samples were collected before and after incubation for subsequent analysis.
as §1

[8] = system: human whole blood; test: Whole blood cell model: anti-CD3 stimulation, cytokine measurement; type: cell-based; details: + Anti-CD3, + CytoSorb
Experimental: (§6) Subsequently, the blood was split into two experimental groups: one was treated with CytoSorb in a batch setup, and the other served as an untreated control, incubated under identical conditions at 37 °C on a roller mixer. Following treatment, all samples were allowed to rest for 4 h. After the resting period, blood samples were stimulated with either lipopolysaccharide (LPS) E. coli or with anti-CD3 antibodies. […] The stimulation was carried out for 4 h at 37 °C on a roller mixer. Thereafter, the blood samples were centrifuged, and the plasma was collected and stored at −80 °C. Leukocyte activation was assessed by quantification of IL-1β, IL-6, IL-8, and TNF-α.

[9] = system: autologous blood cells; test: Cellular uptake of immunosuppressants by autologous blood cells (static setup); type: in vitro ADME, human; details: spiked plasma with autologous blood cells 1:1 v/v, n = 3
Experimental: as §5
MPA was determined using a validated test for the Cobas c311 autoanalyzer from Roche (Basel, Switzerland). 6-MP was quantified by reversed-phase HPLC [17, 18]. […] 6-MP was quantified with a retention time of 2.3 min using an UV detector (325 nm). The quantification of cytokines was determined by Magnetic Luminex Assay with a human premixed Multi Analyte Kit (R&D Systems, Minneapolis, MN, USA). The urea, albumin and total protein levels were measured with the cobas c311 automated analyzer with corresponding test kits from Roche (Penzberg, Germany).

[10] = literature; ref 21 (6-MP), 22 (CsA), 23 (MPR), 24 (MPA), 25 (TAC); cited from earlier work
[11] = system: human whole blood; test: Whole blood cell model: LPS stimulation, cytokine measurement; type: cell-based; details: + CytoSorb
Experimental: as §6

Structure (SMILES): Sc1ncnc2nc[nH]c12 [6-MP, 6-mercaptopurine]
- reduction in serum level following CytoSorb treatment (in words) [1]: significant reduction
- mean clearance rate ([2]; CytoSorb treatment, at 15 min, Equation (2)): ~31 mL/min
- adsorption (removal) by CytoSorb ([2]; dynamic ex vivo circuit, 400 mL human whole blood, 30 mL cartridge, 4 h): 47 ± 16%
- removal by dialysis (in words) [3]: efficiently removed
- clearance ([3]; initial values): ~ 190 mL/min
- removal by dialysis (in words) [4]: efficiently removed
- clearance ([4]; after 8 h): below 10 mL/min
- clearance ([4]; highest value reached): up to 30 mL/min
- volume of distribution (Vd) [5]: ≈ 0.9 L/kg
- fraction unbound [6]: 0.662
- reduction of level in plasma by CytoSorb [7]: 33 ± 11%
- IL-1β serum level ([8]; test 1): 0 pg/mL
- IL-6 serum level ([8]; test 1): 3 pg/mL
- IL-8 serum level ([8]; test 1): 205 pg/mL
- TNF-α serum level ([8]; test 1): 12 pg/mL
- IL-1β serum level ([8]; test 2): 75 pg/mL
- IL-6 serum level ([8]; test 2): 381 pg/mL
- IL-8 serum level ([8]; test 2): 4175 pg/mL
- TNF-α serum level ([8]; test 2): 46 pg/mL
- IL-1β serum level ([8]; test 3): 70 pg/mL
- IL-6 serum level ([8]; test 3): 30 pg/mL
- IL-8 serum level ([8]; test 3): 686 pg/mL
- TNF-α serum level ([8]; test 3): 41 pg/mL
- absorbed / reduced by blood cells [9]: 36 ± 6%
- Protein Binding in Plasma, Reference [10]: 39 [21] %
- IL-1β serum level ([11]; test 1): 354 pg/mL
- IL-6 serum level ([11]; test 1): 3786 pg/mL
- IL-8 serum level ([11]; test 1): 6337 pg/mL
- TNF-α serum level ([11]; test 1): 2920 pg/mL
- IL-1β serum level ([11]; test 2): 44 pg/mL
- IL-6 serum level ([11]; test 2): 730 pg/mL
- IL-8 serum level ([11]; test 2): 2253 pg/mL
- TNF-α serum level ([11]; test 2): 1762 pg/mL
- IL-1β serum level ([11]; test 3): 190 pg/mL
- IL-6 serum level ([11]; test 3): 3799 pg/mL
- IL-8 serum level ([11]; test 3): 7104 pg/mL
- TNF-α serum level ([11]; test 3): 1250 pg/mL

Reference: publication PMC12655457, “Does CytoSorb Interfere with Immunosuppression? A Pharmacokinetic and Functional Evaluation” (Pharmaceutics, 2025)
